Data as given in US5760214A, “Bone resorption inhibition/osteogenesis promotion compound” (Iskra Industry Co., Ltd., priority 1993, dated 1998).

How the values were obtained:
[1] = tested on: synthesis of bone proteins; conditions: cell level, U.S. Pat. No. 4,925,833; cited from earlier work
[2] = tested on: osteoblast originating from the calvaria of Whister rats; experiment: Osteogenesis Test (1) (Experiment 3), von Kossa dyeing; assay type: cell-based; conditions: 10^-8 M, addition in calcification period
Protocol: A first generation incubation system of the osteoblast originating from the calvaria of Whister rats (female, 6-months' age) was used as the test cells. After the start of incubation, the sample drug (compound 1-3) was added once a day to the medium in a dose of 10^-6 M, 10^-8 M or 10^-9 M on the second and third days (propagation period). Alternatively, the compound 1-3 in the amount described above was added once a day to the medium for 4 days (calcification period) from the seventh day from the start of incubation. On the fourteenth day from the start of incubation, the cells were subjected to von Kossa dyeing and detection of phosphates was carried out. The area of the bone knots which were dyed to brown was confirmed by the naked eye and was used as the index for osteogenesis.

[3] = Intracorporeal Distribution of Compound (Experiment 1); assay type: in vivo; conditions: mice, 20 μCi/20 g; for drug concentration in blood: i.v. tail vein, 3H, mean; for drug quantity in tissue: brain / drug quantity in tissue: muscle / drug quantity in tissue: stomach: i.v.
Protocol: The compound 1-3 produced in Synthesis Example 1-3 was subjected to radioactive labelling by ^3 H (0.34 mCi/mg), and was injected into the vein of the tail of mice in a dosage of 20 μCi/20 g. Groups of mice each comprising five mice were killed at 1 minute, 5 minutes, 15 minutes, 30 minutes, 1 hour, 4 hours, 6 hours, 24 hours, 48 hours and 72 hours after the injection, and 50 μl of the blood was collected from the eye socket of each mouse. Further, the heart, the womb, the small intestine, bones (thighbone), etc., were collected from each mouse, and 50 mg of the tissue (50 μl for the blood) was placed into a plastic test tube. Further, 0.2 ml of perchloric acid, 0.4 ml of hydrogen peroxide and a drop of n-octyl alcohol were put into the test tube, and the test tube was left in a water bath at 75° C. for 45 minutes. Next, 0.1 ml of this digestive fluid was sampled and was placed into a bottle storing a scintillating solution and furthermore, 5 ml of 0.5% scintillating solution was mixed. After the solution became transparent, it was placed into an FJ2105 liquid scintillation counter so as to measure radioactivity and to determine cpm of the sample. Separately, dpm of 52 samples obtained from four groups of animals was measured (External Standard Method).
The quantity of the drug inside the tissue was determined in the following way.
Drug quantity in tissue (cpm/mg)=(sample cpm).div.(digested tissue quantity (mg))
Drug quantity in tissue (μg/mg)=(sample cpm/mg×6)[…](count efficiency (E)×2.22×10^7 ×0.34 mCi/mg (specific radioactivity))

mice = experiment: Acute Toxicity Test (Experiment 2); assay type: in vivo, mice (Kunming species); conditions: for No. of dead animals: of 10 animals
Protocol: The compound 1-3 was pale yellow crystalline poweder and its lot number was 930113. The solution was a pale yellow transparent solution, and has a concentration of 50 mg/ml and a pH of about 5. It was offered from Osteoporosis Research Laboratory, Department of Pharmacy, West China University of Medical Science School (WCUMS).
Kunming species mice, health: first class, weight: 18 to 21 g, half male and half female. The mice were offered from Experimental Animal Center of WCUSM.
Four to five dose groups were prepared in equal ratios (1:0.7 to 0.8) within the LD range of 0 to 100% obtained by preliminary tests. The drug for peroral administration was prepared by suspending the solid compound 1-3 in 1% CMCNa2 to form a suspension. For injection, drug solutions having different concentrations were prepared by dissolving the compound 1-3 in physiological saline solution by a low specific gravity dilution method. The animals were starved (but without limiting water), and 20 hours later, ten mice were grouped at random into each group irrespective of their sex and body weight. The drug was dosed once a day in a dose of 0.2 ml/10 g and the animals were inspected. Dead animals were dissected and any change of the morbid state was examined with by the naked eye.
After the chemical was dosed once in the maximum concentration and in the maximum capacity for peroral administration to 20 mice (10 males and 10 females), the animals were examined for 7 days. […] The maximum tolerance dose (MTD) was >6 g/kg.

[4] = peroral, maximum concentration, single dose, 7 days

Structure (SMILES): CN(C)[C@@H]1C(O)=C(C(N)=O)C(=O)[C@@]2(O)C(O)=C3C(=O)c4c(O)cccc4[C@@](C)(O)[C@H]3C[C@@H]12 [tetracycline]
- synthesis of bone proteins [1]: promotes the synthesis of bone proteins

Structure (SMILES): CN(C)C1C(=O)C(C(=O)NCN2CCN(CCOc3ccc4c(c3)CCC3C4CCC4(C)C(=O)CCC34)CC2)=C(O)C2(O)C(=O)C3=C(O)c4c(O)cccc4C(C)(O)C3CC12 (stereo not shown) [Compound 1-3, N-4-[17-oxy-estra-1,3,5 (10)-trien-3-oxyethyl]-piperazine-1-methylene-tetracycline]
- Osteogenesis promotion function, calcification period [2]: .uparw. .uparw.
- drug concentration in blood ([3]; 1 min): 8665 cpm/50 μl
- drug concentration in blood ([3]; 5 min): 5238 cpm/50 μl
- drug concentration in blood ([3]; 15 min): 2638 cpm/50 μl
- drug concentration in blood ([3]; 30 min): 2347 cpm/50 μl
- drug concentration in blood ([3]; 1 hr): 952 cpm/50 μl
- drug concentration in blood ([3]; 4 hr): 659 cpm/50 μl
- drug concentration in blood ([3]; 6 hr): 715 cpm/50 μl
- drug concentration in blood ([3]; 24 hr): 523 cpm/50 μl
- drug concentration in blood ([3]; 48 hr): 272 cpm/50 μl
- drug concentration in blood ([3]; 72 hr): 190 cpm/50 μl
- drug quantity in tissue: brain ([3]; 1 min): 20 cpm/mg tissue
- drug quantity in tissue: muscle ([3]; 1 min): 28 cpm/mg tissue
- drug quantity in tissue: stomach ([3]; 1 min): 30 cpm/mg tissue
- drug quantity in tissue: brain ([3]; 5 min): 13 cpm/mg tissue
- drug quantity in tissue: muscle ([3]; 5 min): 32 cpm/mg tissue
- drug quantity in tissue: stomach ([3]; 5 min): 39 cpm/mg tissue
- drug quantity in tissue: brain ([3]; 15 min): 9 cpm/mg tissue
- drug quantity in tissue: muscle ([3]; 15 min): 15 cpm/mg tissue
- drug quantity in tissue: stomach ([3]; 15 min): 28 cpm/mg tissue
- drug quantity in tissue: brain ([3]; 30 min): 10 cpm/mg tissue
- drug quantity in tissue: muscle ([3]; 30 min): 22 cpm/mg tissue
- drug quantity in tissue: stomach ([3]; 30 min): 32 cpm/mg tissue
- drug quantity in tissue: brain ([3]; 1 hour): 7 cpm/mg tissue
- drug quantity in tissue: muscle ([3]; 1 hour): 11 cpm/mg tissue
- drug quantity in tissue: stomach ([3]; 1 hour): 12 cpm/mg tissue
- drug quantity in tissue: brain ([3]; 4 hours): 7 cpm/mg tissue
- drug quantity in tissue: muscle ([3]; 4 hours): 7 cpm/mg tissue
- drug quantity in tissue: stomach ([3]; 4 hours): 10 cpm/mg tissue
- drug quantity in tissue: brain ([3]; 6 hours): 6 cpm/mg tissue
- drug quantity in tissue: muscle ([3]; 6 hours): 6 cpm/mg tissue
- drug quantity in tissue: stomach ([3]; 6 hours): 9 cpm/mg tissue
- drug quantity in tissue: brain ([3]; 24 hours): 4 cpm/mg tissue
- drug quantity in tissue: muscle ([3]; 24 hours): 4 cpm/mg tissue
- drug quantity in tissue: stomach ([3]; 24 hours): 6 cpm/mg tissue
- drug quantity in tissue: brain ([3]; 48 hours): 4 cpm/mg tissue
- drug quantity in tissue: muscle ([3]; 48 hours): 5 cpm/mg tissue
- drug quantity in tissue: stomach ([3]; 48 hours): 4 cpm/mg tissue
- drug quantity in tissue: brain ([3]; 72 hours): 3 cpm/mg tissue
- drug quantity in tissue: muscle ([3]; 72 hours): 4 cpm/mg tissue
- drug quantity in tissue: stomach ([3]; 72 hours): 3 cpm/mg tissue
- toxicity (mice): its toxicity was extremely low
- activity / behaviour after injection (mice; after intravenous injection): activity of the mice decreased and then the mice started jumping and went into spasm
- difference between the sexes of the dead animals (mice; after intravenous injection): No difference was found between the sexes of the dead animals
- eyeball, incontinence (mice; after intravenous injection): The eyeball protruded and changed to white, and incontinence of urine and feces was observed
- time of death of poisoned animals (mice; after intravenous injection): the major proportion of the poisoned animals died instantly, an extremely few survived were also dead within 24 hours
- change of the morbid state in dissection (mice; dead animals, naked eye): any change of the morbid state could not at all be observed by the naked eye
- death ratio (mice; i.v. tail vein, 102.4 mg/kg): 0%
- provit unit (Y) (mice; i.v. tail vein, 102.4 mg/kg): 2.60
- No. of dead animals (mice; i.v. tail vein, 102.4 mg/kg): 0
- death ratio (mice; i.v. tail vein, 128 mg/kg): 20%
- provit unit (Y) (mice; i.v. tail vein, 128 mg/kg): 4.16
- No. of dead animals (mice; i.v. tail vein, 128 mg/kg): 2
- death ratio (mice; i.v. tail vein, 160 mg/kg): 80%
- provit unit (Y) (mice; i.v. tail vein, 160 mg/kg): 5.84
- No. of dead animals (mice; i.v. tail vein, 160 mg/kg): 8
- death ratio (mice; i.v. tail vein, 200 mg/kg): 100%
- provit unit (Y) (mice; i.v. tail vein, 200 mg/kg): 7.40
- No. of dead animals (mice; i.v. tail vein, 200 mg/kg): 10
- death ratio (mice; i.v. tail vein, 250 mg/kg): 100%
- No. of dead animals (mice; i.v. tail vein, 250 mg/kg): 10
- LD50 (mice; i.v. tail vein, Bliss method): 143.11 mg/kg
- LD50, range of 95% reliability limit (mice; i.v. tail vein, Bliss method): 132.95 to 154.05 mg/kg
- LD50 (mice; intravenous injection, tail vein): 143.11 mg/kg
- abnormality in the mice (mice; [4]): no abnormality was found in the mice
- death of mice (mice; [4]): no mouse was dead
